According to patent US10183015B2, “Heterocyclic compounds and methods of use” (Medivation Technologies LLC, priority 2015, dated 2019):
Several values for one entry are separate records, joined by “and”; a condition that tells them apart may be missing. Identical values can stand only once.

Key:
Type in all cases: in vivo
[1] = Short-term Paigen-diet NASH mouse model: body weight, food intake, mortality
Excerpt: Results. […] Mice were maintained on specific diet and were sacrificed after 9 days of diet.

[2] = system: 60% high fat Paigen diet induced NASH mouse model; assay: Short-term Paigen-diet NASH mouse model: liver Oil Red O staining; conditions: 21 days
Experimental: To investigate whether Compound #37 prevents the development of pathology associated with NASH and steatosis in an acute exploratory disease model, a study was conducted using a diet-induced acute liver steatosis model in mice. As described below, in this study, C57BL/6J mice were initiated on the Paigen diet and simultaneously treated with Compound #37 (5, 20, and 40 mg/kg/day) or vehicle control (20% HPβCD 10 mL/kg/day) by oral gavage for 21 days.
After acclimation, 8-week old male C57Bl/6J mice (Charles River) weighing about 25 g were randomized in 4 groups according their body weight and treated once daily around noon by oral gavage with vehicle, or Compound #37 at various for 21 days as follows: Group 1: vehicle-20% (2-hydroxypropyl)-β-cyclodextrin (HP-β-CD) (n=10); Group 2: Compound #37, 5 mg/kg (n=10) Group 3: Compound #37, 20 mg/kg (n=10) Group 4: Compound #37, 40 mg/kg (n=10). During the treatment period, body weight and food intake (measured over 24h) were measured 3 times per week and once a week, respectively. During the acclimation, all mice were fed a standard diet (Special Diets Services RM1 (E), product no. 801492) and tap water ad libitum. After the acclimation period, mice were fed until the end of the experiment with a 60% high fat Paigen diet (60 kcal % fat, 1.25% cholesterol, and 0.5% cholate; D11061901, Research Diet) and tap water ad libitum.
One 0.5 cm^3 piece of liver was frozen in OCT in isopentane and stored at −80° C. for neutral lipid coloration with quantification to evaluate accumulation of neutral lipids in the liver. One section (thickness 5-7 μm) per block was deposited on superfrost+slides for Red Oil staining. Red Oil-stained slides were digitalized at ×20 with the Nanozoomer 2.0 HT. Red Oil labeling was quantified (surface, density): the stained slides were analyzed using an image. All the samples were analyzed within the same range of labeling intensity (0-130), allowing comparison between animals. The intensity scale ranged from 0 to 255 grey levels, in which 0 is the value of a black pixel, and 255 is the value of a white pixel. The staining intensity was calculated as the mean intensity of each pixel composing the labeling signal. For each slide, the percentage (%) of labeling was also calculated: %=(Surface of labeling*100)/section area.

[3] = system: ACC1; assay: DIN mouse model: hepatic ACC1 gene expression; set-up: key to 2^DDct: expression relative to vehicle group, normalized to 18S; conditions: for 2^DDct / ACC1 / DDct / Dct: Gene Expression: ACC1, 20 mg/kg group; for 18S: Gene Expression: ACC1 table, 18S reference, 20 mg/kg group
Experimental: Gene expression analysis. Hepatic expression levels of genes involved in lipid metabolism (FAS, SREBP1, ACC1, SCD1), cholesterol metabolism (HMG-CoAR, LDLR), SREBP proteolysis (SCAP, INSIG1), ER stress (PERK), oxidative stress (NRF2), inflammation (MCP-1), and fibrosis (collagen 1α1) were quantified by RTqPCR. Expression level was normalized to 18S gene expression and relative expression to vehicle group was calculated with the […] method.
(§1) Male C57Bl/6J mice (8 weeks old) were housed in enriched ventilated cages (31×12.5×12.7 cm) throughout the experimental phase. Animals' cages litters were changed at least once a week. Animal were housed 5 per cage on inverted 12-hour light cycle (at 09:00 am lights off), 22±2° C. and 55±10% relative humidity. The acclimation period was 20 days. During the acclimation period, all mice were fed a standard diet (RM1 (E) 801492, SDS) and tap water ad libitum. After the acclimation period, mice were fed with the DIN diet (60% fat, cholesterol enriched) and fructose-enriched tap water ad libitum until the end of the experiment.
(§2) At 6 weeks of diet, mice were 4-hour fasted (09:00 am to 1:00 pm) and blood (150 μl/EDTA) was collected at 01:00 pm by retro-orbital bleeding under isoflurane anesthesia. Mice were then allocated in 2 homogenous groups (n=12/group) according to their plasma levels of ALT (average levels: 685U/L), AST (average levels: 627U/L) and HOMA-IR index (average value: 4.7), into 2 homogenous groups (see values at day 0 in Tables 15A and 15B ALT/AST and Tables 16A and 16B for HOMA-IR). Mice were then treated once daily by oral gavage with vehicle (Group 1) or Compound #37 at 20 mg/kg (Group 2) for 70 days.
Hepatic expression levels of genes involved in lipid (FAS, SREBP1, ACC1, SCD1), cholesterol metabolism (HMG-CoAR, LDLR), in SREBP proteolysis (SCAP, INSIG1), in ER stress (PERK), oxidative stress (NRF2), and inflammation (MCP-1) were not changed. However, expression of collagen 1α1, involved in liver fibrosis, was reduced by 66% in mice treated with Compound #37 (p<0.05 vs. vehicle).

[4] = system: leptin; assay: DIN mouse model: plasma leptin; conditions: for plasma leptin day 70: day 70, 20 mg/kg
Experimental: as §1, §2
To investigate whether Compound #37 improves pre-existing steatosis/NASH pathology, a study was conducted using a 16-week diet-induced NASH mouse model. In this model, mice develop steatosis that progresses with inflammation and fibrosis that mimic many of the observed pathologies in human nonalcoholic fatty liver disease (NAFLD) and NASH (Hebbard & George, 2010). For 6 weeks, mice were fed a high-fat, high-cholesterol diet and provided drinking water containing fructose to induce liver pathology (Charlton et al, 2011). […]

## CC(C)Cc1cc(-c2nc(-c3ccc(NS(=O)(=O)C(F)(F)F)cc3Cl)cs2)ccn1 [Compound 37, N-(3-chloro-4-(2-(2-isobutylpyridin-4-yl)thiazol-4-yl)phenyl)-1,1,1-trifluoromethanesulfonamide]
[1]; 5 mg/kg/day and 20 mg/kg/day, surviving animals
  differences in weight vs vehicle control at end of 3-week dosing period: no differences in weight
[1]; 20 mg/kg/day, group of 10 mice (1 on day 7, 2 on day 9, 1 on day 11)
  mice died: 4 mice
[1]; 40 mg/kg/day, group of 10 mice
  death of additional mice by day 9: 3 mice
  death of mice by day 7: 3 mice
[1]; 40 mg/kg/day, over 4 days of treatment
  mean weight loss: > 20%
[1]; mouse, in vivo
  mice died: No mice died
[2]; 5 mg/kg p.o. daily, group mean
  Liver O red Oil staining, % labeling: 1.50%
[2]; 5 mg/kg p.o. daily, individual animals
  Liver O red Oil staining, % labeling: 2.08% and 2.02% and 1.19% and 2.18% and 1.64% and 1.09% and 1.16% and 1.50% and 0.70% and 1.39%
[2]; 20 mg/kg p.o. daily, group mean
  Liver O red Oil staining, % labeling: 0.93%
[2]; 20 mg/kg p.o. daily, individual animals
  Liver O red Oil staining, % labeling: 1.53% and 0.81% and 0.29% and 1.11% and 0.92% (2×)
[3]; individual animal
  2^DDct: 1.62 and 1.20 and 0.21 and 1.19 and 0.20 and 1.29 and 0.79 and 0.67 and 0.34 and 0.23 and 1.77
  ACC1: 27.74 and 28.17 and 31 and 28.06 and 30.55 and 28.11 and 27.95 and 28.97 and 28.95 and 29.55 and 27.41
  DDct: −0.69 and −0.26 and 2.28 and −0.25 and 2.32 and −0.36 and 0.34 and 0.58 and 1.57 and 2.12 and −0.82
  Dct: 15.19 and 15.62 and 18.16 and 15.63 and 18.2 and 15.52 and 16.22 and 16.46 and 17.45 and 18 and 15.06
[3]; mean, n 11
  2^DDct: 0.86
  ACC1: 28.8
  DDct: 0.62
  Dct: 16.5
  18S: 12.3
[3]; individual animal, 20 mg/kg
  18S: 12.55 (2×) and 12.84 and 12.43 and 12.35 (2×) and 12.59 and 11.73 and 12.51 and 11.5 and 11.55
[4]; 20 mg/kg, end of the treatment period, vs. vehicle
  plasma leptin reduction: 38%
[4]; group mean, n 11
  plasma leptin day 70: 265 pg/mL
[4]; individual animals
  plasma leptin day 70: 454 pg/mL and 330 pg/mL and 202 pg/mL and 280 pg/mL and 341 pg/mL and 144 pg/mL and 294 pg/mL and 46 pg/mL and 269 pg/mL and 374 pg/mL and 187 pg/mL
